Patent US20250326771A1, “PIPERAZINE DERIVATIVES USEFUL IN HIV THERAPY” (VIIV HEALTHCARE COMPANY, priority 2022, published 2025)
pIC50: −log10 of the molar value. Like-named read-outs stand apart in the source and are kept apart here.

Experiments:
[1] = tested on: Jurkat HIV-luciferase clones; assay: Jurkat latency reversal assay; format: cell-based; conditions: Homo sapiens, 48 h; Jurkat latency reversal assay potency; read-out: Jurkat pEC50 (converted)
Outline: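 Latency reversal was scored as provirus-driven luciferase luminescence in pooled Jurkat HIV-luc clones after 48 h compound exposure at 37° C. EC50 and maximal activation over vehicle were fitted with a four-parameter logistic model.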

cIAP1-BIR2 = cIAP1-BIR2 (Homo sapiens (Human), UniProt Q13490); assay: BIR binding assay (FRET competition), cIAP1 BIR2
Outline: (§1)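 615/665 nm FRET ratio. Compound, His-domain and 200 nM AF647-SMAC peptide incubated 60 min, then 2 nM Eu-W1024 for 30 min. Domains: cIAP1-BIR3 50 nM; XIAP-BIR3 100 nM; cIAP1-BIR2, cIAP2-BIR2 325 nM each. 15-pt 3-fold series; variable-slope IC50.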

cIAP2-BIR2 = cIAP2-BIR2 (Homo sapiens (Human), UniProt Q13489); assay: BIR binding assay (FRET competition), cIAP2 BIR2
Outline: as §1

cIAP2-BIR3 = cIAP2-BIR3 (Homo sapiens (Human), UniProt Q13489); assay: BIR binding assay (FRET competition), cIAP2 BIR3; conditions: for cIAP2 BIR3 vs BIR2 separation window: fold separation (FS) for cIAP2
XIAP-BIR3 = XIAP-BIR3 (Homo sapiens (Human), UniProt P98170); assay: BIR binding assay (FRET competition), XIAP BIR3; conditions: for XIAP BIR3 vs BIR2 separation window: fold separation (FS) for XIAP
Outline: as §1

XIAP-BIR2 = XIAP-BIR2 (Homo sapiens (Human), UniProt P98170); assay: BIR binding assay (FRET competition), XIAP BIR2; conditions: for IC50: read-out: XIAP BIR2 (pIC50) (converted)
Outline: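 Competitive TR-FRET used His-tagged XIAP-BIR2 (200 nM) and 200 nM AlexaFluor647-labelled AVPIAQKSE SMAC peptide in HEPES buffer pH 7.4 with CHAPS, glycerol and DTT, incubated 60 min before 30 min with 2 nM Eu-W1024. The 615/665 nm ratio from a 15-point, 3-fold series was fit with a four-parameter model for IC50/pIC50.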

cIAP1-BIR3 = cIAP1-BIR3 (Homo sapiens (Human), UniProt Q13490); assay: BIR binding assay (FRET competition), cIAP1 BIR3; conditions: for cIAP1 BIR3 vs BIR2 separation window: fold separation (FS) for cIAP1
Outline: as §1

Chain of cIAP2-BIR3 (Q13489 238-349): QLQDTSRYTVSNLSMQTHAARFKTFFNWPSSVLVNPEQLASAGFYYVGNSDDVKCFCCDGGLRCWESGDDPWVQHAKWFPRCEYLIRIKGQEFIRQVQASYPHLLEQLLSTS
Chain of cIAP1-BIR3 (Q13490 253-363): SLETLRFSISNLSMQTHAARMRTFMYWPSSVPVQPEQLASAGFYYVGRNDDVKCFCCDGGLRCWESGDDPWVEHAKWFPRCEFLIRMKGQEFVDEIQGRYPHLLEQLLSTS
Chain of XIAP-BIR3 (P98170 241-356): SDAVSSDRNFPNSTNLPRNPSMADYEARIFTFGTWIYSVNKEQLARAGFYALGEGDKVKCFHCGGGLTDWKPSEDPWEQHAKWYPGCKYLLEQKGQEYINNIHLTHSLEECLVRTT
Chain of XIAP-BIR2 (P98170 124-240): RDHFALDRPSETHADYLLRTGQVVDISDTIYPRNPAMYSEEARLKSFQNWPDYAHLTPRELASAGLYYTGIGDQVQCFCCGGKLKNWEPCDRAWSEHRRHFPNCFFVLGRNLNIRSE
Chain of cIAP1-BIR2 (Q13490 173-257): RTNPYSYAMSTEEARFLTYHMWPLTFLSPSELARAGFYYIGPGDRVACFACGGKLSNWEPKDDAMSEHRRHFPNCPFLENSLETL
Chain of cIAP2-BIR2 (Q13489 158-242): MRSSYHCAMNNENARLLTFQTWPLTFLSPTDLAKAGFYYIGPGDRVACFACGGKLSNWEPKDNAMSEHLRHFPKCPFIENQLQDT

Compound	EC50 [1] [nM]	pIC50 (cIAP1-BIR2)	pIC50 (cIAP2-BIR2)	pIC50 (cIAP2-BIR3)	cIAP2 BIR3 vs BIR2 separation window (cIAP2-BIR3)	pIC50 (XIAP-BIR3)	XIAP BIR3 vs BIR2 separation window (XIAP-BIR3)	IC50 (XIAP-BIR2; FRET competition) [nM]	pIC50 (cIAP1-BIR3)	cIAP1 BIR3 vs BIR2 separation window (cIAP1-BIR3)	IC50 (XIAP-BIR2; FRET competition binding) [nM]	XIAP BIR2 (pIC50) (XIAP-BIR2; FRET competition binding)	cIAP1 BIR3 (pIC50) (cIAP1-BIR3; FRET competition binding)
C[C@@H]1CN(CC(=O)N2CC(C)(C)c3[nH]c(=O)c(Oc4ccc(F)cc4)cc32)[C@@H](CN2CCO[C@H](C(=O)NCc3ccc(CNC(=O)[C@@H]4CN(C[C@H]5CN[C@H](C)CN5CC(=O)N5CC(C)(C)c6[nH]c(=O)c(Oc7ccc(F)cc7)cc65)CCO4)cc3)C2)CN1 [Compound 181, (2S,2′S)-N,N′-(1,4-phenylenebis(methylene)) bis(4-(((2R,5R)-1-(2-(6-(4-fluorophenoxy)-3,3-dimethyl-5-oxo-2,3,4,5-tetrahydro-1H-pyrrolo[3,2-b]pyridin-1-yl)-2-oxoethyl)-5-methylpiperazin-2-yl)methyl)morpholine-2-carboxamide)]	63.1 to 316	5.00 to 5.50	5.00 to 5.50	8.10 to 8.86	++++ (FS>10,000)	8.10 to 8.86	++++ (FS>10,000)	10000 to 51300	8.10 to 8.86	++++ (FS>10,000)	–	–	–
C[C@@H]1CN(CC(=O)N2CC(C)(C)c3[nH]c(=O)c(Cc4ccc(F)cc4)cc32)[C@@H](CN2CCN(CCc3cn(CCCCC(=O)N4CCN(C[C@H]5CN[C@H](C)CN5CC(=O)N5CC(C)(C)c6[nH]c(=O)c(Cc7ccc(F)cc7)cc65)[C@H](C)C4)nn3)C[C@H]2C)CN1 [Compound 158]	63.1 to 316	5.50 to 6.00	6.00 to 7.65	7.80 to 8.10	++ (1,000>FS>100)	7.80 to 8.10	++++ (FS>10,000)	10000 to 51300	7.80 to 8.10	++ (1,000>FS>100)	–	–	–
C[C@@H]1CN(CC(=O)N2CC(C)(C)c3[nH]c(=O)c(Cc4ccc(F)cc4)cc32)[C@@H](CN2CCO[C@H](COc3ccccc3Oc3ccccc3OC[C@@H]3CN(C[C@H]4CN[C@H](C)CN4CC(=O)N4CC(C)(C)c5[nH]c(=O)c(Cc6ccc(F)cc6)cc54)CCO3)C2)CN1 [Example 68, 1,1′-(2,2′-((3R,3′R,6R,6′R)-(((2S,2'S)-(((oxybis(2,1-phenylene))bis(oxy))bis(methylene))bis(morpholine-2,4-diyl))bis(methylene))bis(3-methylpiperazine-6,1-diyl))bis(acetyl))bis(6-(4-fluorobenzyl)-3,3-dimethyl-1,2,3,4-tetrahydro-5H-pyrrolo[3,2-b]pyridin-5-one)]	0.49 to 12.6	5.00 to 5.50	5.50 to 6.00	7.80 to 8.10	+++ (10,000>FS>1,000)	7.80 to 8.10	+++ (10,000>FS>1,000)	–	7.50 to 7.80	+++ (10,000>FS>1,000)	10000 to 51300	–	–
C[C@@H]1CN(CC(=O)N2CC(C)(C)c3[nH]c(=O)c(Cc4ccc(F)cc4)cc32)[C@@H](CN2CCC(CCNC(=O)c3ccc(C(=O)NCCC4CCN(C[C@H]5CN[C@H](C)CN5CC(=O)N5CC(C)(C)c6[nH]c(=O)c(Cc7ccc(F)cc7)cc65)CC4)cc3)CC2)CN1 [Example 103, N^1,N^4-bis(2-(1-(((2R,5R)-1-(2-(6-(4-fluorobenzyl)-3,3-dimethyl-5-oxo-2,3,4,5-tetrahydro-1H-pyrrolo[3,2-b]pyridin-1-yl)-2-oxoethyl)-5-methylpiperazin-2-yl)methyl)piperidin-4-yl)ethyl)terephthalamide]	63.1 to 316	5.00 to 5.50	5.00 to 5.50	7.80 to 8.10	+++ (10,000>FS>1,000)	7.80 to 8.10	++++ (FS>10,000)	–	7.80 to 8.10	+++ (10,000>FS>1,000)	10000 to 51300	–	–
C[C@@H]1CN(CC(=O)N2CC(C)(C)c3[nH]c(=O)c(Cc4ccc(F)cc4)cc32)[C@@H](CN2CCN(C(=O)COc3cccc(OCC(=O)N4CCN(C[C@H]5CN[C@H](C)CN5CC(=O)N5CC(C)(C)c6[nH]c(=O)c(Cc7ccc(F)cc7)cc65)[C@H](C)C4)c3)C[C@H]2C)CN1 [Example 11, 1,1′-(2,2′-((3R,3′R,6R,6′R)-(((2R,2′R)-(2,2′-(1,3-phenylenebis(oxy))bis(acetyl))bis(2-methylpiperazine-4,1-diyl))bis(methylene))bis(3-methylpiperazine-6,1-diyl))bis(acetyl))bis(6-(4-fluorobenzyl)-3,3-dimethyl-1,2,3,4-tetrahydro-5H-pyrrolo[3,2-b]pyridin-5-one)]	63.1 to 316	5.50 to 6.00	5.50 to 6.00	7.50 to 7.80	++ (1,000>FS>100)	6.30 to 7.50	++++ (FS>10,000)	–	7.50 to 7.80	++ (1,000>FS>100)	10000 to 51300	–	–
C[C@@H]1CN(CC(=O)N2CC(C)(C)c3[nH]c(=O)c(Cc4ccc(F)cc4)cc32)[C@@H](CN2CCC[C@@H](NC(=O)CCCCCCC(=O)N[C@@H]3CCCN(C[C@H]4CN[C@H](C)CN4CC(=O)N4CC(C)(C)c5[nH]c(=O)c(Cc6ccc(F)cc6)cc54)C3)C2)CN1 [Example 44, N^1,N^8-bis((R)-1-(((2R,5R)-1-(2-(6-(4-fluorobenzyl)-3,3-dimethyl-5-oxo-2,3,4,5-tetrahydro-1H-pyrrolo[3,2-b]pyridin-1-yl)-2-oxoethyl)-5-methylpiperazin-2-yl)methyl)piperidin-3-yl)octanediamide]	316 to 3310	4.29 to 5.00	4.29 to 5.00	7.50 to 7.80	++++ (FS>10,000)	7.50 to 7.80	++++ (FS>10,000)	–	–	+++ (10,000>FS>1,000)	–	+ (4.29<pIC50<=5.00)	+ (7.50>pIC50>=6.30)
C[C@@H]1CN(CC(=O)N2CC(C)(C)c3[nH]c(=O)c(Cc4ccc(F)cc4)cc32)[C@@H](CN2CCN(Cc3c(F)c(F)c(CN4CCN(C[C@H]5CN[C@H](C)CN5CC(=O)N5CC(C)(C)c6[nH]c(=O)c(Cc7ccc(F)cc7)cc65)[C@H](C)C4)c(F)c3F)C[C@H]2C)CN1 [Example 28, 1,1′-(2,2′-((3R,3′R,6R,6′R)-(((2R,2′R)-((perfluoro-1,4-phenylene)bis(methylene))bis(2-methylpiperazine-4,1-diyl))bis(methylene))bis(3-methylpiperazine-6,1-diyl))bis(acetyl))bis(6-(4-fluorobenzyl)-3,3-dimethyl-1,2,3,4-tetrahydro-5H-pyrrolo [3,2-b]pyridin-5-one)]	316 to 3310	5.50 to 6.00	5.00 to 5.50	7.50 to 7.80	+++ (10,000>FS>1,000)	6.30 to 7.50	+++ (10,000>FS>1,000)	–	7.50 to 7.80	+++ (10,000>FS>1,000)	10000 to 51300	–	–
C[C@@H]1CN(CC(=O)N2CC(C)(C)c3[nH]c(=O)c(Cc4ccc(F)cc4C#N)cc32)[C@@H](CN2CCO[C@H](C(=O)NCc3ccc(CNC(=O)[C@@H]4CN(C[C@H]5CN[C@H](C)CN5CC(=O)N5CC(C)(C)c6[nH]c(=O)c(Cc7ccc(F)cc7C#N)cc65)CCO4)cc3)C2)CN1 [Compound 179, (2S,2′S)-N,N′-(1,4-phenylenebis(methylene)) bis(4-(((2R,5R)-1-(2-(6-(2-cyano-4-fluorobenzyl)-3,3-dimethyl-5-oxo-2,3,4,5-tetrahydro-1H-pyrrolo[3,2-b]pyridin-1-yl)-2-oxoethyl)-5-methylpiperazin-2-yl)methyl)morpholine-2-carboxamide)]	12.6 to 63.1	5.50 to 6.00	5.50 to 6.00	7.50 to 7.80	+++ (10,000>FS>1,000)	6.30 to 7.50	+++ (10,000>FS>1,000)	10000 to 51300	7.50 to 7.80	++ (1,000>FS>100)	–	–	–
